In patent US20230146455A1, “TREATMENT OF INFLAMMATORY DISEASES WITH PEPTIDES AND PHARMACEUTICAL COMPOSITIONS” (Yuyu Pharma, Inc., priority 2020, published 2023):
“And” between values parts separate entries of the source, which are not always exact repeats. Equal values may be shown once. Where a SMILES comes first, the peptide text is derived from it. [ ]: non-standard residue; d: D form. Hyp = O=C(O)[C@@H]1C[C@@H](O)CN1

Test system: IL-1 beta/IL-1F2
Test: Example 8 main study Luminex, LPS hPBMCs: IL-1 beta/IL-1F2
Type: cell-based, human
Method: Human PBMCs were pretreated with YY-101, YDE-011, YDE-043 or reference compound; Xiidra® at various concentration (ranging from […] to 500 nM) for 2 h before stimulation. An equal volume of 0.5% DMSO was used as a vehicle control. Then, the cells were treated with LPS at 5 ug/ml, which was selected based on the pilot study. The supernatants from treated cells were harvested at 24 h and placed in a 96 well for Luminex cytokine & chemokine profiling using a Luminex 200 multiplex assay (Luminex; R&D system, USA).
The main study arm with triplicate wells per group in a 24-well plate: • 1. Blank • 2. PBMC: 0.5% DMSO • 3. PBMC+LPS (5 ug/ml) • 4. PBMC+YY-101 500 nM • 5. PBMC+YY-101 50 nM • 6. PBMC+YY-101 5 nM • 7. PBMC+YY-101 0.5 nM • 8. PBMC+LPS (5 ug/ml)+Xiidra® 500 nM • 9. PBMC+LPS (5 ug/ml)+Xiidra® 50 nM • 10. PBMC+LPS (5 ug/ml)+Xiidra® 5 nM • 11. PBMC+LPS (5 ug/ml)+Xiidra® 0.5 nM • 12. PBMC+LPS (5 ug/ml)+Xiidra® 0.05 nM • 13. PBMC+LPS (5 ug/ml)+Xiidra® 0.005 nM • 14. PBMC+LPS (5 ug/ml)+YY-101 500 nM • 15. PBMC+LPS (5 ug/ml)+YY-101 50 nM • 16. PBMC+LPS (5 ug/ml)+YY-101 5 nM • 17. PBMC+LPS (5 ug/ml)+YY-101 0.5 nM • 18. PBMC+LPS (5 ug/ml)+YY-101 0.05 nM • 19. PBMC+LPS (5 ug/ml)+YY-101 0.005 nM • 20. PBMC+LPS (5 ug/ml)+YDE-011 500 nM • 21. PBMC+LPS (5 ug/ml)+YDE-011 50 nM • 22. PBMC+LPS (5 ug/ml)+YDE-011 5 nM • 23. PBMC+LPS (5 ug/ml)+YDE-011 0.5 nM • 24. PBMC+LPS (5 ug/ml)+YDE-011 0.05 nM • 25. PBMC+LPS (5 ug/ml)+YDE-011 0.005 nM • 26. PBMC+LPS (5 ug/ml)+YDE-043 500 nM • 27. PBMC+LPS (5 ug/ml)+YDE-043 50 nM • 28. PBMC+LPS (5 ug/ml)+YDE-043 5 nM • 29. PBMC+LPS (5 ug/ml)+YDE-043 0.5 nM • 30. PBMC+LPS (5 ug/ml)+YDE-043 0.05 nM • 31. PBMC+LPS (5 ug/ml)+YDE-043 0.005 nM
Multiplex assay was used to measure 30 cytokines and chemokines. The 1:200 diluted cell supernatant and serial dilution of the standard were dispensed into a 96 well plate at 50 ul/well. Then, the pre-mixed cocktail of antibody-coated magnetic beads was dispensed at 50 ul/well and incubated at room temperature for 2 h in a horizontal orbital microplate shaker at 800±500 rpm. The beads were washed using a magnetic device to prevent loss. The biotin-antibody was dispensed in 50 ul of each well and incubated at room temperature for 1 h in a shaker at 800±500 rpm. After washing, streptavidin-PE was added at 50 ul/well and incubated at room temperature for 30 min in a shaker under the same conditions. Finally, after washing, wash buffer (100 ul/well) was added to the plate and incubated in a shaker for 2 min. The Luminex™ 200 setting were set according to the manufacturer's protocol. The data was calculated with a standard five-parameter logistic nonlinear regression analysis of the data (xPonent software 4.2, USA). Results were presented as concentration (ng/ml or pg/ml).

[1] = PBMC + LPS(5 ug/ml) + test article 0.005 nM, Mean
[2] = PBMC + LPS(5 ug/ml) + test article 0.005 nM, individual replicates
[3] = PBMC + LPS(5 ug/ml) + test article 0.05 nM, Mean
[4] = PBMC + LPS(5 ug/ml) + test article 0.05 nM, individual replicates
[5] = PBMC + LPS(5 ug/ml) + test article 0.5 nM, Mean
[6] = PBMC + LPS(5 ug/ml) + test article 0.5 nM, individual replicates
[7] = PBMC + LPS(5 ug/ml) + test article 5 nM, Mean
[8] = PBMC + LPS(5 ug/ml) + test article 5 nM, individual replicates
[9] = PBMC + LPS(5 ug/ml) + test article 50 nM, Mean
[10] = PBMC + LPS(5 ug/ml) + test article 50 nM, individual replicates
[11] = PBMC + LPS(5 ug/ml) + test article 500 nM, Mean
[12] = PBMC + LPS(5 ug/ml) + test article 500 nM, individual replicates

Structure (SMILES): CC(C)C[C@H](NC(=O)CNC(=O)[C@H](CC(C)C)NC(=O)[C@H](CCC(N)=O)NC(=O)CNC(=O)[C@@H]1C[C@@H](O)CN1)C(=O)N[C@@H](C)C(=O)NCC(=O)N1CCC[C@H]1C(=O)N[C@@H](CCCCN)C(=O)O [YDE-011] (H-[Hyp]GQLGLAGPK-OH)
- IL-1 beta/IL-1F2 Concentration [1]: 5171.7 pg/mL
- IL-1 beta/IL-1F2 MFI [1]: 94.5
- IL-1 beta/IL-1F2 Concentration [2]: 5350.1 pg/mL and 5023.0 pg/mL and 5141.9 pg/mL
- IL-1 beta/IL-1F2 MFI [2]: 97.5 and 92.0 and 94.0
- IL-1 beta/IL-1F2 Concentration [3]: 5836.1 pg/mL
- IL-1 beta/IL-1F2 MFI [3]: 105.7
- IL-1 beta/IL-1F2 Concentration [4]: 5796.4 pg/mL and 6094.1 pg/mL and 5617.8 pg/mL
- IL-1 beta/IL-1F2 MFI [4]: 105.0 and 110.0 and 102.0
- IL-1 beta/IL-1F2 Concentration [5]: 4864.5 pg/mL
- IL-1 beta/IL-1F2 MFI [5]: 89.3
- IL-1 beta/IL-1F2 Concentration [6]: 4844.7 pg/mL and 4963.6 pg/mL and 4785.3 pg/mL
- IL-1 beta/IL-1F2 MFI [6]: 89.0 and 91.0 and 88.0
- IL-1 beta/IL-1F2 Concentration [7]: 4350.3 pg/mL
- IL-1 beta/IL-1F2 MFI [7]: 80.7
- IL-1 beta/IL-1F2 Concentration [8]: 3539.2 pg/mL and 4250.8 pg/mL and 5260.9 pg/mL
- IL-1 beta/IL-1F2 MFI [8]: 67.0 and 79.0 and 96.0
- IL-1 beta/IL-1F2 Concentration [9]: 4786.7 pg/mL
- IL-1 beta/IL-1F2 MFI [9]: 88.0
- IL-1 beta/IL-1F2 Concentration [10]: 5558.3 pg/mL and 5617.8 pg/mL and 3183.9 pg/mL
- IL-1 beta/IL-1F2 MFI [10]: 101.0 and 102.0 and 61.0
- IL-1 beta/IL-1F2 Concentration [11]: 4262.6 pg/mL
- IL-1 beta/IL-1F2 MFI [11]: 79.2
- IL-1 beta/IL-1F2 Concentration [12]: 5796.4 pg/mL and 2681.1 pg/mL and 4310.2 pg/mL
- IL-1 beta/IL-1F2 MFI [12]: 105.0 and 52.5 and 80.0
